Paper PMC3257202, “Xylan oligosaccharides and cellobiohydrolase I (TrCel7A) interaction and effect on activity” (Biotechnology for Biofuels, 2011)

Legend:
[1] = molecular target: T1, TrCel7A core (Trichoderma reesei, UniProt P62694); test: isothermal titration calorimetry; conditions: 30°C, binding constant on a molar concentration scale (unit not given)
T1 construct: gene cbh1; GH7 catalytic domain only, first 436 residues after the 17-residue signal peptide; linker and C-terminal family 1 CBM removed; recombinant from Aspergillus oryzae, purified
T1 sequence (P62694 18-453): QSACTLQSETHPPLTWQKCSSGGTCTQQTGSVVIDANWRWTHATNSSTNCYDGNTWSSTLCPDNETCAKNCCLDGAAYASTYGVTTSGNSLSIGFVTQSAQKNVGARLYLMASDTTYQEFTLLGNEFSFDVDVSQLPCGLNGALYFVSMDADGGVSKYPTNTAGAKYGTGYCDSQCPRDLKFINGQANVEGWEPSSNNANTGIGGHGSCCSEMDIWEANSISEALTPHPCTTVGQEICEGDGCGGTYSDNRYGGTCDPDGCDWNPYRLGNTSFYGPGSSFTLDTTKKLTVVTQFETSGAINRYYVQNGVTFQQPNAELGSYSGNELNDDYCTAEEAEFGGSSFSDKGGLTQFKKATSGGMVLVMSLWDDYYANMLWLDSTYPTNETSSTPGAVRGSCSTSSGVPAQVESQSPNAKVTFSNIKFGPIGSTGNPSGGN
Description: isothermal titration calorimetry on TrCel7A core

[2] = molecular target: T2, TrCel7A (Trichoderma reesei, UniProt P62694); test: isothermal titration calorimetry; conditions: 30°C; binding constant on a molar concentration scale (unit not given)
T2 construct: gene cbh1; full-length secreted enzyme (GH7 catalytic domain, glycosylated linker, family 1 CBM), 17-residue signal peptide removed, 52 kDa; recombinant from Aspergillus oryzae, purified
T2 sequence (P62694 18-513): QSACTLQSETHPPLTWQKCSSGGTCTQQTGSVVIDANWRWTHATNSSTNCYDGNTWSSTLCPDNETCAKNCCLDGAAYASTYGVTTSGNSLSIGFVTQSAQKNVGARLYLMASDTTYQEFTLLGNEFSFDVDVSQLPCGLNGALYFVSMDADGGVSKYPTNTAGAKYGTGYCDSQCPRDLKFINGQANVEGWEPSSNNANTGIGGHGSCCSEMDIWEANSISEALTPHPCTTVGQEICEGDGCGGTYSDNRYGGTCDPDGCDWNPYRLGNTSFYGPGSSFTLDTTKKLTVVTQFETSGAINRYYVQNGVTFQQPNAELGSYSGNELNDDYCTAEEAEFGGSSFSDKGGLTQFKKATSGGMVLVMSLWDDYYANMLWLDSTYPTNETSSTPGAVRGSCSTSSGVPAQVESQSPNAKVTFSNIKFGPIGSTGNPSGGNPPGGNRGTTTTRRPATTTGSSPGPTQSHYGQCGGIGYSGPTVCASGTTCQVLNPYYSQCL
Description: isothermal titration calorimetry on TrCel7A

| Compound | TrCel7A core (K) [1] | TrCel7A (K) [2] | TrCel7A core (K) ([1]; compound identity contradictory in print (name hexaose, formula (xyl)5)) |
| --- | --- | --- | --- |
| OC1OC[C@@H](O[C@@H]2OC[C@@H](O[C@@H]3OC[C@@H](O[C@@H]4OC[C@@H](O[C@@H]5OC[C@@H](O[C@@H]6OC[C@@H](O[C@@H]7OC[C@@H](O)[C@H](O)[C@H]7O)[C@H](O)[C@H]6O)[C@H](O)[C@H]5O)[C@H](O)[C@H]4O)[C@H](O)[C@H]3O)[C@H](O)[C@H]2O)[C@H](O)[C@H]1O (some centres unmarked) [Xyloheptaose] | 7.43 × 10^3 | 5.76 × 10^3 |  |
| OC1OC[C@@H](O[C@@H]2OC[C@@H](O[C@@H]3OC[C@@H](O[C@@H]4OC[C@@H](O)[C@H](O)[C@H]4O)[C@H](O)[C@H]3O)[C@H](O)[C@H]2O)[C@H](O)[C@H]1O (some centres unmarked) [Xylotetraose] | 2.97 × 10^3 |  |  |
| OC1OC[C@@H](O[C@@H]2OC[C@@H](O[C@@H]3OC[C@@H](O)[C@H](O)[C@H]3O)[C@H](O)[C@H]2O)[C@H](O)[C@H]1O (some centres unmarked) [Xylotriose] | > 1.0 × 10^3 |  |  |
| Xylohexaose (xyl)5 |  |  | 3.44 × 10^3 |
